What was measured:
[1] = xn = mol fraction of the nth substance listed; details: 101 kPa, Liquid
[2] = excess molar enthalpy (molar enthalpy of mixing); xn = mol fraction of the nth substance listed; details: 101 kPa, Liquid, Flow calorimetry

CCCC[n+]1ccc(C)cc1.F[B-](F)(F)F [1-butyl-4-methylpyridinium tetrafluoroborate] + CCO
Details	excess molar enthalpy [kcal/mol]	mass density [kg/m3]
[1], 298.15 K, x1 = 0.0523	–	852
[1], 298.15 K, x1 = 0.1023	–	901.7
[1], 298.15 K, x1 = 0.1469	–	938.3
[1], 298.15 K, x1 = 0.2023	–	976
[1], 298.15 K, x1 = 0.307	–	1030.5
[1], 298.15 K, x1 = 0.3801	–	1059.5
[1], 298.15 K, x1 = 0.4445	–	1080.8
[1], 298.15 K, x1 = 0.5069	–	1098.6
[1], 298.15 K, x1 = 0.5553	–	1110.8
[1], 298.15 K, x1 = 0.6045	–	1121.8
[1], 298.15 K, x1 = 0.6639	–	1134.2
[1], 298.15 K, x1 = 0.7127	–	1142.8
[1], 298.15 K, x1 = 0.7447	–	1148.4
[1], 298.15 K, x1 = 0.7964	–	1156.8
[1], 298.15 K, x1 = 0.8673	–	1167
[1], 298.15 K, x1 = 0.9171	–	1173.6
[1], 318.15 K, x1 = 0.0464	–	827.9
[1], 318.15 K, x1 = 0.0965	–	881.1
[1], 318.15 K, x1 = 0.1445	–	921.6
[1], 318.15 K, x1 = 0.2494	–	987.9
[1], 318.15 K, x1 = 0.2968	–	1011
[1], 318.15 K, x1 = 0.3855	–	1046.8
[1], 318.15 K, x1 = 0.4947	–	1080.9
[1], 318.15 K, x1 = 0.5877	–	1103.6
[1], 318.15 K, x1 = 0.6821	–	1123.2
[1], 318.15 K, x1 = 0.7798	–	1139.8
[1], 318.15 K, x1 = 0.8267	–	1146.8
[1], 318.15 K, x1 = 0.8776	–	1153.8
[2], 298.15 K, x1 = 0.0209	0.0715	–
[2], 298.15 K, x1 = 0.0461	0.149	–
[2], 298.15 K, x1 = 0.0751	0.224	–
[2], 298.15 K, x1 = 0.1068	0.285	–
[2], 298.15 K, x1 = 0.1406	0.358	–
[2], 298.15 K, x1 = 0.1751	0.419	–
[2], 298.15 K, x1 = 0.2104	0.481	–
[2], 298.15 K, x1 = 0.246	0.527	–
[2], 298.15 K, x1 = 0.2661	0.554	–
[2], 298.15 K, x1 = 0.3	0.571	–
[2], 298.15 K, x1 = 0.3402	0.58	–
[2], 298.15 K, x1 = 0.3855	0.57	–
[2], 298.15 K, x1 = 0.4296	0.545	–
[2], 298.15 K, x1 = 0.4879	0.505	–
[2], 298.15 K, x1 = 0.5522	0.455	–
[2], 298.15 K, x1 = 0.6225	0.389	–
[2], 298.15 K, x1 = 0.712	0.318	–
[2], 298.15 K, x1 = 0.8071	0.223	–
[2], 298.15 K, x1 = 0.903	0.12	–
[2], 318.15 K, x1 = 0.0162	0.0906	–
[2], 318.16 K, x1 = 0.0465	0.211	–
[2], 318.17 K, x1 = 0.075	0.315	–
[2], 318.18 K, x1 = 0.108	0.408	–
[2], 318.19 K, x1 = 0.1427	0.495	–
[2], 318.2 K, x1 = 0.178	0.566	–
[2], 318.21 K, x1 = 0.2091	0.623	–
[2], 318.22 K, x1 = 0.2364	0.658	–
[2], 318.23 K, x1 = 0.2498	0.683	–
[2], 318.24 K, x1 = 0.2824	0.708	–
[2], 318.25 K, x1 = 0.3237	0.718	–
[2], 318.26 K, x1 = 0.3722	0.717	–
[2], 318.27 K, x1 = 0.4286	0.697	–
[2], 318.28 K, x1 = 0.4859	0.664	–
[2], 318.29 K, x1 = 0.5506	0.618	–
[2], 318.3 K, x1 = 0.6196	0.558	–
[2], 318.31 K, x1 = 0.6923	0.483	–
[2], 318.32 K, x1 = 0.7625	0.404	–
[2], 318.33 K, x1 = 0.8348	0.315	–
[2], 318.34 K, x1 = 0.9014	0.213	–
[2], 318.35 K, x1 = 0.9592	0.102	–

CCCC[n+]1ccc(C)cc1.F[B-](F)(F)F [1-butyl-4-methylpyridinium tetrafluoroborate] + CCCCO
Details	excess molar enthalpy [kcal/mol]	mass density [kg/m3]
[1], 298.15 K, x1 = 0.5948	–	1094.4
[1], 298.15 K, x1 = 0.692	–	1120.2
[1], 298.15 K, x1 = 0.739	–	1131.5
[1], 298.15 K, x1 = 0.7851	–	1141.8
[1], 298.15 K, x1 = 0.8916	–	1163.9
[1], 318.15 K, x1 = 0.0548	–	833.2
[1], 318.15 K, x1 = 0.1169	–	875.7
[1], 318.15 K, x1 = 0.2301	–	940.7
[1], 318.15 K, x1 = 0.3406	–	992.1
[1], 318.15 K, x1 = 0.4471	–	1033.5
[1], 318.15 K, x1 = 0.564	–	1071.4
[1], 318.15 K, x1 = 0.6758	–	1102.2
[1], 318.15 K, x1 = 0.7856	–	1128.1
[1], 318.15 K, x1 = 0.8427	–	1140
[1], 318.15 K, x1 = 0.887	–	1148.6
[2], 318.15 K, x1 = 0.0242	0.112	–
[2], 318.16 K, x1 = 0.0613	0.226	–
[2], 318.17 K, x1 = 0.1029	0.339	–
[2], 318.18 K, x1 = 0.1466	0.429	–
[2], 318.19 K, x1 = 0.1938	0.527	–
[2], 318.2 K, x1 = 0.24	0.601	–
[2], 318.21 K, x1 = 0.2864	0.654	–
[2], 318.22 K, x1 = 0.3344	0.694	–
[2], 318.23 K, x1 = 0.3708	0.704	–
[2], 318.24 K, x1 = 0.4149	0.707	–
[2], 318.25 K, x1 = 0.4635	0.69	–
[2], 318.26 K, x1 = 0.5162	0.667	–
[2], 318.27 K, x1 = 0.5729	0.623	–
[2], 318.28 K, x1 = 0.6488	0.542	–
[2], 318.29 K, x1 = 0.7232	0.463	–
[2], 318.3 K, x1 = 0.7962	0.361	–
[2], 318.31 K, x1 = 0.8569	0.278	–
[2], 318.32 K, x1 = 0.9006	0.195	–
[2], 318.33 K, x1 = 0.9435	0.129	–

CCCC[n+]1ccc(C)cc1.F[B-](F)(F)F [1-butyl-4-methylpyridinium tetrafluoroborate] + CO
Details	excess molar enthalpy [kcal/mol]	mass density [kg/m3]
[1], 298.15 K, x1 = 0.0539	–	880.6
[1], 298.15 K, x1 = 0.0819	–	916.2
[1], 298.15 K, x1 = 0.095	–	931.5
[1], 298.15 K, x1 = 0.1078	–	944.4
[1], 298.15 K, x1 = 0.1549	–	984.7
[1], 298.15 K, x1 = 0.2038	–	1017.3
[1], 298.15 K, x1 = 0.3016	–	1064.3
[1], 298.15 K, x1 = 0.3729	–	1088.5
[1], 298.15 K, x1 = 0.4548	–	1110.8
[1], 298.15 K, x1 = 0.5027	–	1120.9
[1], 298.15 K, x1 = 0.5533	–	1131.2
[1], 298.15 K, x1 = 0.6076	–	1140.4
[1], 298.15 K, x1 = 0.7174	–	1155.8
[1], 298.15 K, x1 = 0.8053	–	1165.6
[1], 298.15 K, x1 = 0.9129	–	1176
[1], 318.15 K, x1 = 0.0489	–	855.9
[1], 318.15 K, x1 = 0.096	–	915.9
[1], 318.15 K, x1 = 0.1439	–	961.3
[1], 318.15 K, x1 = 0.1894	–	994.2
[1], 318.15 K, x1 = 0.3003	–	1049.4
[1], 318.15 K, x1 = 0.3551	–	1068.5
[1], 318.15 K, x1 = 0.4349	–	1091.7
[1], 318.15 K, x1 = 0.4888	–	1103.9
[1], 318.15 K, x1 = 0.5342	–	1112.7
[1], 318.15 K, x1 = 0.5959	–	1123.9
[1], 318.15 K, x1 = 0.6592	–	1133.5
[1], 318.15 K, x1 = 0.7266	–	1142.3
[1], 318.15 K, x1 = 0.8378	–	1154.8
[1], 318.15 K, x1 = 0.9046	–	1161.4
[2], 298.15 K, x1 = 0.0155	0.0607	–
[2], 298.15 K, x1 = 0.0359	0.116	–
[2], 298.15 K, x1 = 0.0582	0.159	–
[2], 298.15 K, x1 = 0.0832	0.217	–
[2], 298.15 K, x1 = 0.1111	0.27	–
[2], 298.15 K, x1 = 0.1397	0.329	–
[2], 298.15 K, x1 = 0.1698	0.377	–
[2], 298.15 K, x1 = 0.1711	0.392	–
[2], 298.15 K, x1 = 0.1953	0.415	–
[2], 298.15 K, x1 = 0.2214	0.435	–
[2], 298.15 K, x1 = 0.2412	0.453	–
[2], 298.15 K, x1 = 0.2755	0.469	–
[2], 298.15 K, x1 = 0.3109	0.48	–
[2], 298.15 K, x1 = 0.3617	0.475	–
[2], 298.15 K, x1 = 0.427	0.453	–
[2], 298.15 K, x1 = 0.507	0.411	–
[2], 298.15 K, x1 = 0.6029	0.35	–
[2], 298.15 K, x1 = 0.7161	0.272	–
[2], 298.15 K, x1 = 0.8469	0.154	–
[2], 318.2 K, x1 = 0.0102	0.0337	–
[2], 318.21 K, x1 = 0.0238	0.0662	–
[2], 318.22 K, x1 = 0.0405	0.098	–
[2], 318.23 K, x1 = 0.0635	0.178	–
[2], 318.24 K, x1 = 0.0898	0.261	–
[2], 318.25 K, x1 = 0.1174	0.336	–
[2], 318.26 K, x1 = 0.1476	0.403	–
[2], 318.27 K, x1 = 0.1778	0.457	–
[2], 318.28 K, x1 = 0.1969	0.498	–
[2], 318.29 K, x1 = 0.2103	0.529	–
[2], 318.3 K, x1 = 0.2392	0.559	–
[2], 318.31 K, x1 = 0.2699	0.579	–
[2], 318.32 K, x1 = 0.3021	0.603	–
[2], 318.33 K, x1 = 0.3442	0.61	–
[2], 318.34 K, x1 = 0.3846	0.619	–
[2], 318.35 K, x1 = 0.4397	0.614	–
[2], 318.36 K, x1 = 0.4968	0.595	–
[2], 318.37 K, x1 = 0.5563	0.57	–
[2], 318.38 K, x1 = 0.6281	0.533	–
[2], 318.39 K, x1 = 0.7109	0.466	–
[2], 318.4 K, x1 = 0.8042	0.362	–
[2], 318.41 K, x1 = 0.8793	0.239	–
[2], 318.42 K, x1 = 0.9607	0.0937	–
